Results taken from EP4467141A1, “PYRAZOLO-QUINOLINES AS SELECTIVE INHIBITORS OF GENOTOXIC STRESS-INDUCED IKK/NF- KB PATHWAYS FOR CANCER THERAPY” (Max-Delbrück-Centrum für Molekulare Medizin in der …, priority 2023, dated 2024).
pIC50: −log10 of the molar value. Like-named read-outs stand apart in the source and are kept apart here. Each block holds one compound with its values, some of them ahead of it.

What was measured:
Experiment in all cases: Kinase panel study
Assay type in all cases: biochemical
Conditions in all cases: for inhibition at 1 µM: 1000nM
[1] = target: T1, AKT2 (PKB beta) (Homo sapiens, UniProt P31751)
T1 construct: purchased Thermo Fisher Scientific
T1 sequence (P31751 whole entry): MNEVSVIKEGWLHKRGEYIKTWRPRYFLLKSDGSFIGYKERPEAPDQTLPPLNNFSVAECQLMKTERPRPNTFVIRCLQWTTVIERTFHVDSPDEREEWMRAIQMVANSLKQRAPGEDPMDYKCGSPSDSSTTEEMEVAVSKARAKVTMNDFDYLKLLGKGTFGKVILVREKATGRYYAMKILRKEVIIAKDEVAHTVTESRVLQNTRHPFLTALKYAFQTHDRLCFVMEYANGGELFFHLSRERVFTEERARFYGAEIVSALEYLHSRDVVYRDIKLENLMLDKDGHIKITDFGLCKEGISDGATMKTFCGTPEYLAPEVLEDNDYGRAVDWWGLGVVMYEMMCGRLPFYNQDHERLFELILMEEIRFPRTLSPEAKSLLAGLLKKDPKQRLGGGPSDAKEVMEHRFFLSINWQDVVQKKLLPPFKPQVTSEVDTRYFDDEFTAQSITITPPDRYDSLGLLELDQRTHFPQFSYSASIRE
Experimental: (§1) The Kinase panel study was entirely provided by Thermo Fisher Scientific using the two lead compounds MW01 and MW05 as well as their derivatives (MW01-E06, MW01-E10, MW01-E14, MW01-E18, MW05-E2, MW05-E3, MW05-E9 and MW05-E10. The experiment was performed using the ZLyte or Adapta protocol according to manufacturer standard operating procedures.
(§2) Based on their similar effects in our screen and molecular analysis, MW01 and MW05 were used in comparative target deconvolution studies seeking common targets despite their distinct structures. To eliminate previously identified kinases regulating NF-κB activity, such as IKK, as possible targets of MW01 and MW05, an in vitro kinase inhibition assay was performed. […] We next investigated if any of the shared kinase targets of MW01 and MW05 play a role in genotoxic stress-induced NF-κB activity and established several criteria to narrow down pathway-relevant targets. Considering the similar NF-κB inhibition phenotypes of both compounds, we hypothesized first that the target should be shared by both lead compounds. Second, based on the CaCo2 recovery values and experimental treatment concentration of 10 µM), the putative target kinase should have a low IC50 of, at most, 2000 nM for both lead compounds in the in vitro kinase panel (Fig. 2A). Based on these criteria alone, we arrived at a relatively short list of potential targets for further analysis, leaving only PIK3CG, PIK3C2G, and CLK2 (Fig. 2B). IC50 values for PIK3C2G by both lead compounds agreed best with these criteria, but RNA expression analysis indicates high tissue specificity as well as lack of expression of this kinase in our U2-OS model cell line, which we then eliminated from further analysis (Uhlén et al., 2015). […] Table 6: Percentage of inhibition of the indicated kinases by MW01 or MW05 at either 10 µM or 1 µM. n.d. = not determined.

[2] = target: T2, ALK (Homo sapiens, UniProt Q9UM73)
T2 construct: purchased Thermo Fisher Scientific
T2 sequence (Q9UM73 19-1620): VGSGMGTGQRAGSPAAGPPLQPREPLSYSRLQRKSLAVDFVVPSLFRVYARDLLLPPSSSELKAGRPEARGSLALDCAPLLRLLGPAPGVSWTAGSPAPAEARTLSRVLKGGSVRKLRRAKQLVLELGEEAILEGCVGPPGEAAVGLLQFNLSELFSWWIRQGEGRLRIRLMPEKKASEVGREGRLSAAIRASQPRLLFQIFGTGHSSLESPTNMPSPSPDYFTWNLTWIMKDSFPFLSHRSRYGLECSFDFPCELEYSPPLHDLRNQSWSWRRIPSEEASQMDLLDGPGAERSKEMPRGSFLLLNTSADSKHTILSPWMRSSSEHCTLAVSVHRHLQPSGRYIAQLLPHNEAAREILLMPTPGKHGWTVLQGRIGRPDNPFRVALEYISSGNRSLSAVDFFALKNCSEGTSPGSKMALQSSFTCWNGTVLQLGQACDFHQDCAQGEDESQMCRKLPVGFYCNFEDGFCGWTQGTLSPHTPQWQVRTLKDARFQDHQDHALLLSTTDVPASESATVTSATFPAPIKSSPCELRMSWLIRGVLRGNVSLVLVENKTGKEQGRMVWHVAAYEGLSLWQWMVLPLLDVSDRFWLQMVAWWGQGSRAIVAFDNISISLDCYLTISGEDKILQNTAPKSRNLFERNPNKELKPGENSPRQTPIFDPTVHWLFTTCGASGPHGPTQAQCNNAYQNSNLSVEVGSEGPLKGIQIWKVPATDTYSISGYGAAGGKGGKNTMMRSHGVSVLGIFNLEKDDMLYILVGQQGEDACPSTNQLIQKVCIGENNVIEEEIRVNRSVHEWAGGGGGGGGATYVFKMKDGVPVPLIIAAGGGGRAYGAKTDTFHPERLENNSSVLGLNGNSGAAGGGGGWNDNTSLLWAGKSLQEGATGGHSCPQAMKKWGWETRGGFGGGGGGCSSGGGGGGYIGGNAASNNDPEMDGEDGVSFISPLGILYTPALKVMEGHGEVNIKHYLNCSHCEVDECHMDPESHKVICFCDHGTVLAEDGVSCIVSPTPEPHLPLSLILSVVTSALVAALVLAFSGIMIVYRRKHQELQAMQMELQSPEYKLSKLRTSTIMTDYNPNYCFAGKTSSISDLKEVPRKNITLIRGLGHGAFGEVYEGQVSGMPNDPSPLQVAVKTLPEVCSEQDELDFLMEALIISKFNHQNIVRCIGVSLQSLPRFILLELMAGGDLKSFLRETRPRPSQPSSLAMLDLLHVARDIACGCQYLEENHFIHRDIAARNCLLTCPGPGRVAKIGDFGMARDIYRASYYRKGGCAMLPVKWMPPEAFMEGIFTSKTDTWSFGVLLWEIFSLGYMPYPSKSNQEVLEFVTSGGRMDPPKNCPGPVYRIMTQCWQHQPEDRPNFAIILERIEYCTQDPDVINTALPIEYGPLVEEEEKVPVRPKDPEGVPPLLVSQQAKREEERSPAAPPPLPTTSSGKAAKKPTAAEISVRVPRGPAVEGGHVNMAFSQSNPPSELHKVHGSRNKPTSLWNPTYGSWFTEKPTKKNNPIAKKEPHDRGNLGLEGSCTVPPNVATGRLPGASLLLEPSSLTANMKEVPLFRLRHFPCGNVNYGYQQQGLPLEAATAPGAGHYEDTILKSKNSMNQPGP
Experimental: as §1, §2

[3] = target: T3, BLK (Homo sapiens, UniProt P51451)
T3 construct: purchased Thermo Fisher Scientific
Experimental: as §1, §2

[4] = target: T4, CSF1R (FMS) (Homo sapiens, UniProt P07333)
T4 construct: purchased Thermo Fisher Scientific
T4 sequence (P07333 20-972): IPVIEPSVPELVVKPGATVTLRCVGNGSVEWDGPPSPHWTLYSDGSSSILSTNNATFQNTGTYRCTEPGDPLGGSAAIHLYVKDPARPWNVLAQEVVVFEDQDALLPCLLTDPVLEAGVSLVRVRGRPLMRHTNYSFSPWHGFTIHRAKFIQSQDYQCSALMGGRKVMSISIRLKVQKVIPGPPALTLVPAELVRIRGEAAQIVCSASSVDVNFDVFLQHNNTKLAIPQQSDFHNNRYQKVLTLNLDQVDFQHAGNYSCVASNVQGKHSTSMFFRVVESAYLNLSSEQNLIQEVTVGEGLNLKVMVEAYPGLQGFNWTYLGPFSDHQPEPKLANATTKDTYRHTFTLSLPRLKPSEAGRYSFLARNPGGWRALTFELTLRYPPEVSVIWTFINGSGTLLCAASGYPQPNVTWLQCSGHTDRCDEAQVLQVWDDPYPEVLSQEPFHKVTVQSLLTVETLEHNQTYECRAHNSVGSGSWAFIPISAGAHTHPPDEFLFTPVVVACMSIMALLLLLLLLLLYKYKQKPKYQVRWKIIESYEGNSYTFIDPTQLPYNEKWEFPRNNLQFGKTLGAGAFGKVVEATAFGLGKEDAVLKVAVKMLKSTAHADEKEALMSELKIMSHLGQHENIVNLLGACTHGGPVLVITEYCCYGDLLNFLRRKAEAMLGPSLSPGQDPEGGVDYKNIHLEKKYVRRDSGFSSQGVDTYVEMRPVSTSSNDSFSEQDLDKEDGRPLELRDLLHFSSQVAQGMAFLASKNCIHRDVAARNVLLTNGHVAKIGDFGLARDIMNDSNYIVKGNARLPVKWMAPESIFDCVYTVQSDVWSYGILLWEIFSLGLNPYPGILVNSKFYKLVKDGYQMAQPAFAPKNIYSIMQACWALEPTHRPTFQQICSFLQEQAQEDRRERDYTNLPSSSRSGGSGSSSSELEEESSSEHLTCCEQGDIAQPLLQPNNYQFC
Experimental: as §1, §2

[5] = target: T5, FLT3 (Homo sapiens, UniProt P36888)
T5 construct: purchased Thermo Fisher Scientific
T5 sequence (P36888 27-993): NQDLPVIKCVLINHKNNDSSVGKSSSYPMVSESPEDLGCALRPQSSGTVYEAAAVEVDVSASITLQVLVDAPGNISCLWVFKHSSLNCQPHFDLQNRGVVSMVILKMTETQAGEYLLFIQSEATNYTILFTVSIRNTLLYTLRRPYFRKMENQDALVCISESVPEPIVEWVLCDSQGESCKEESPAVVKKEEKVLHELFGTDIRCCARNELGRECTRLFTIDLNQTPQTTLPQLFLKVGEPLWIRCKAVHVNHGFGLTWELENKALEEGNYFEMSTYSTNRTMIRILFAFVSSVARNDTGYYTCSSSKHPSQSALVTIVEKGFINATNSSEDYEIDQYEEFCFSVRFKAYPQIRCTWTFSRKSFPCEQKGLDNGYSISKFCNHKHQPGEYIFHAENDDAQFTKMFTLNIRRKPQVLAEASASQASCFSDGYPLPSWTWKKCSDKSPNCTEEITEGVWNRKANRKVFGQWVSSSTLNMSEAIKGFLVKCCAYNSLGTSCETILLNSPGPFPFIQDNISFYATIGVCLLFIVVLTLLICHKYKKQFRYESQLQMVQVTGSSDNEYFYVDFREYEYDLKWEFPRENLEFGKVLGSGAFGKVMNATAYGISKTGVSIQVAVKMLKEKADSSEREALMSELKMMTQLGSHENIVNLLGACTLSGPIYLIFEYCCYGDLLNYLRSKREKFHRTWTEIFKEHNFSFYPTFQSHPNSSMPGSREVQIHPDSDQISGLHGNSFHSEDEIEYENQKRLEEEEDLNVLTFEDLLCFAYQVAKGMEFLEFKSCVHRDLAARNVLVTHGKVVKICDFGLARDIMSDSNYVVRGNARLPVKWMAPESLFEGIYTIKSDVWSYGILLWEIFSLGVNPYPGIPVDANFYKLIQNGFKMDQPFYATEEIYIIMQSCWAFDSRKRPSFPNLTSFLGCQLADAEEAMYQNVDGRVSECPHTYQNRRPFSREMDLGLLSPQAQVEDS
Experimental: as §1, §2

[6] = target: T6, FRAP1 (mTOR) (Homo sapiens, UniProt P42345)
T6 construct: purchased Thermo Fisher Scientific
Experimental: as §1, §2

[7] = target: T7, MINK1 (Homo sapiens, UniProt Q8N4C8)
T7 construct: purchased Thermo Fisher Scientific
T7 sequence (Q8N4C8 whole entry): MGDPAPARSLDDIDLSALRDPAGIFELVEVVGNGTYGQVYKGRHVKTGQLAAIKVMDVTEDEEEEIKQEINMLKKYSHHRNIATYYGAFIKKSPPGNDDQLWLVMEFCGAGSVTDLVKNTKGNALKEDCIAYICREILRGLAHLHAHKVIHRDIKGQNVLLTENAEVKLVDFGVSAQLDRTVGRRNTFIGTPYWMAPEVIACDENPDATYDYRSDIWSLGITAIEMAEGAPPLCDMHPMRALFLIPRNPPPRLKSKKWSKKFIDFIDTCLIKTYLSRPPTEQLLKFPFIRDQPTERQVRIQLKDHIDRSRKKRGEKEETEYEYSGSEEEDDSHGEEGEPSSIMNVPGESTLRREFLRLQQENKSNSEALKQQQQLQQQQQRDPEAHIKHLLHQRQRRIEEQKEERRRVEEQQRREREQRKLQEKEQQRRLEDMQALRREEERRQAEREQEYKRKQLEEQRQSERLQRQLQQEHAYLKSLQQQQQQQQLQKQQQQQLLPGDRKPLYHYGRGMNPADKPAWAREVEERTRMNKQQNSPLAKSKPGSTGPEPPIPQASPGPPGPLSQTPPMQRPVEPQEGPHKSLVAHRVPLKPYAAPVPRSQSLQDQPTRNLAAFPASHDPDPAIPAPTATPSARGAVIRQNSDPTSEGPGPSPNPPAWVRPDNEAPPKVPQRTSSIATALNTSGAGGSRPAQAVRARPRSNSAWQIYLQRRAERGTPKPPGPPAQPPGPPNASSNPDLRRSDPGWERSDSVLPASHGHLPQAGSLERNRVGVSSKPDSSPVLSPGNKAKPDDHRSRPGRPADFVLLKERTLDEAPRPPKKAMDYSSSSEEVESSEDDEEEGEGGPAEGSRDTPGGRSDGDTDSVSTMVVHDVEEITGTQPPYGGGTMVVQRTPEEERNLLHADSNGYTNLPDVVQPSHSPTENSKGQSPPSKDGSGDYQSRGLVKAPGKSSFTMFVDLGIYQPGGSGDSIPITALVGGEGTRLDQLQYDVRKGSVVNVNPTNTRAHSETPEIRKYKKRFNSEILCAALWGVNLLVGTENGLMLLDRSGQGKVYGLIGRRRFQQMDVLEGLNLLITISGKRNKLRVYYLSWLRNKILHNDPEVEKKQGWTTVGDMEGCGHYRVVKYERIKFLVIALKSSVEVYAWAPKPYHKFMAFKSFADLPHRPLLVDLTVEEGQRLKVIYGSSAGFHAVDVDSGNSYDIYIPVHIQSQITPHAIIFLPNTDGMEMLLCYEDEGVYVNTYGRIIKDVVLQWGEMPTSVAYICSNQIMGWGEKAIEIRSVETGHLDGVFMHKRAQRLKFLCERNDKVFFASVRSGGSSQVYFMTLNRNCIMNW
Experimental: as §1, §2

[8] = target: T8, PIK3CA/PIK3R3 (p11 0 alpha/p55 gamma) (Homo sapiens, UniProt P42336)
T8 construct: purchased Thermo Fisher Scientific
Experimental: as §1, §2

[9] = target: T9, PIP4K2A (Homo sapiens, UniProt P48426)
T9 construct: purchased Thermo Fisher Scientific
T9 sequence (P48426 1-406): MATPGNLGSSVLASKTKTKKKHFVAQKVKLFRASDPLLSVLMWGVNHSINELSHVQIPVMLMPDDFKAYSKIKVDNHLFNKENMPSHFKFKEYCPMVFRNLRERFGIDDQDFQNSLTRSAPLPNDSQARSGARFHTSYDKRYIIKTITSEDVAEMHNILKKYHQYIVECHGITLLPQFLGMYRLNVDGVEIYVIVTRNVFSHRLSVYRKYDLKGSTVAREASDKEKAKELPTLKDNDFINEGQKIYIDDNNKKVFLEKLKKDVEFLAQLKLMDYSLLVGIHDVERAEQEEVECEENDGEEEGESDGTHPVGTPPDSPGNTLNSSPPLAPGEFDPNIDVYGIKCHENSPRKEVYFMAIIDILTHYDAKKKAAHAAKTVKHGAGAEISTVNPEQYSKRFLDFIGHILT
Experimental: as §1, §2

[10] = target: T10, PIP5K1A (Homo sapiens, UniProt Q99755)
T10 construct: purchased Thermo Fisher Scientific
T10 sequence (Q99755 whole entry): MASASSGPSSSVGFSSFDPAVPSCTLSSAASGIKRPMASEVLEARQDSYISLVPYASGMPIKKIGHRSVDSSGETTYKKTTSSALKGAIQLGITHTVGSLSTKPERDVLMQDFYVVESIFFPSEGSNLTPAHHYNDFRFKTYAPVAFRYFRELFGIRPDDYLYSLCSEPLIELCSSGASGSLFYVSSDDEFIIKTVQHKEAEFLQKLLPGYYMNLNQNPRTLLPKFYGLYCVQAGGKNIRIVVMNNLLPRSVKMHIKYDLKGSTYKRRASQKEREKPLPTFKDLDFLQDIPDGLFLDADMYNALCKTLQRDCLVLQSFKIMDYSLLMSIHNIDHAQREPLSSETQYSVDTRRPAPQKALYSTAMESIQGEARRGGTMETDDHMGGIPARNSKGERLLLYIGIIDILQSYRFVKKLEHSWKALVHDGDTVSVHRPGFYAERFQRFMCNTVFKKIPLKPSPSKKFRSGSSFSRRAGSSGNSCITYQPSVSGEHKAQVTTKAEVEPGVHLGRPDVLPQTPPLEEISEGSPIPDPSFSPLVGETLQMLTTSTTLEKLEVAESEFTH
Experimental: as §1, §2

[11] = read-out: Percentage of inhibition
[12] = 10000nM, read-out: Percentage of inhibition
[13] = AKT2 (PKB beta), compound at 10µM, read-out: % of Inhibition
[14] = ALK, compound at 10µM, read-out: % of Inhibition
[15] = BLK, compound at 10µM, read-out: % of Inhibition
[16] = CSF1R (FMS), compound at 10µM, read-out: % of Inhibition
[17] = FLT3, compound at 10µM, read-out: % of Inhibition
[18] = FRAP1 (mTOR), compound at 10µM, read-out: % of Inhibition
[19] = MINK1, compound at 10µM, read-out: % of Inhibition
[20] = PIK3CA/PIK3R3, compound at 10µM, read-out: % of Inhibition
[21] = PIP4K2A, compound at 10µM, read-out: % of Inhibition
[22] = PIP5K1A, compound at 10µM, read-out: % of Inhibition

Structure (SMILES): COc1ccc2c(c1OC)c(=O)n1c3ccc(O)cc3c3ccnc2c31 [MW01, 5-Hydroxy-10,11-dimethoxy-9H-benzo[c]indolo[3,2,1-ij][1,5]naphthyridin-9-one]
inhibition at 1 µM [1, 11]: 1%
inhibition at 10 µM [1, 12]: 9%
inhibition at 1 µM [2, 11]: 18%
inhibition at 10 µM [2, 12]: 40%
inhibition at 1 µM [3, 11]: 8%
inhibition at 10 µM [3, 12]: 26%
inhibition at 1 µM [4, 11]: 36%
inhibition at 10 µM [4, 12]: 51%
inhibition at 1 µM [5, 11]: 61%
inhibition at 10 µM [5, 12]: 86%
inhibition at 1 µM [6, 11]: 31%
inhibition at 10 µM [6, 12]: 80%
pIC50 ([6]; in vitro kinase panel, sub-2000 nM criterion): ≤ 5.70
inhibition at 1 µM [7, 11]: 60%
inhibition at 10 µM [7, 12]: 73%
inhibition at 1 µM [8, 11]: 92%
inhibition at 10 µM [8, 12]: 96%
inhibition at 1 µM [9, 11]: -8%
inhibition at 10 µM [9, 12]: -3%
inhibition at 1 µM [10, 11]: 25%
inhibition at 10 µM [10, 12]: 43%

inhibition at 10 µM [1, 13]: 4%
inhibition at 10 µM [2, 14]: 19%
inhibition at 10 µM [3, 15]: 23%
inhibition at 10 µM [4, 16]: 33%
inhibition at 10 µM [5, 17]: 31%
inhibition at 10 µM [6, 18]: 12%
inhibition at 10 µM [7, 19]: 57%
inhibition at 10 µM [8, 20]: 10%
inhibition at 10 µM [9, 21]: -4%
inhibition at 10 µM [10, 22]: 20%
Structure (SMILES): COc1ccc2c(c1)c1ccnc3c4nc(OC)ccc4c(=O)n2c13 [MW01-E6, 5,15-dimethoxy-1,11,14-triazapentacyclo[10.7.1,0^2,7.0^8,^20.0^13,^18]icosa-2(7),3,5,8(20),9,11,13(18),14,16-nonaen-19-one]

inhibition at 10 µM [1, 13]: 18%
inhibition at 10 µM [2, 14]: 75%
inhibition at 10 µM [3, 15]: 42%
inhibition at 10 µM [4, 16]: 61%
inhibition at 10 µM [5, 17]: 27%
inhibition at 10 µM [6, 18]: 42%
inhibition at 10 µM [7, 19]: 92%
inhibition at 10 µM [8, 20]: 90%
inhibition at 10 µM [9, 21]: -2%
inhibition at 10 µM [10, 22]: 5%
Structure (SMILES): O=c1c2cc(O)ccc2c2nccc3c4cc(O)ccc4n1c32 [MW01-E10, 5,16-dihydroxy-1,11-diazapentacyclo[10.7.1.0^2,^7.0^8,^20.0^13,^18]icosa-2(7),3,5,8(20),9,11,13(18),14,16-nonaen-19-one]

inhibition at 10 µM [1, 13]: 14%
inhibition at 10 µM [2, 14]: 15%
inhibition at 10 µM [3, 15]: 9%
inhibition at 10 µM [4, 16]: 18%
inhibition at 10 µM [5, 17]: 12%
inhibition at 10 µM [6, 18]: 26%
inhibition at 10 µM [7, 19]: 12%
inhibition at 10 µM [8, 20]: 59%
inhibition at 10 µM [9, 21]: 53%
inhibition at 10 µM [10, 22]: 11%
Structure (SMILES): COc1ccc2c(c1)c1ccnc3c4ccnc(OC)c4c(=O)n2c13 [MW01-E14, 5,17-dimethoxy-1,11,16-triazapentacyclo[10.7.1.0^2,^7.0^8,^20.0^13,^18]icosa-2(7),3,5,8(20),9,11,13(18),14,16-nonaen-19-one]

inhibition at 10 µM [1, 13]: 3%
inhibition at 10 µM [2, 14]: 35%
inhibition at 10 µM [3, 15]: 23%
inhibition at 10 µM [4, 16]: 57%
inhibition at 10 µM [5, 17]: 65%
inhibition at 10 µM [6, 18]: 43%
inhibition at 10 µM [7, 19]: 85%
inhibition at 10 µM [8, 20]: 94%
inhibition at 10 µM [9, 21]: -1%
inhibition at 10 µM [10, 22]: 28%
Structure (SMILES): O=c1c2cnccc2c2nccc3c4cc(O)ccc4n1c32 [MW01-E18, 5-hydroxy-1,11,16-triazapentacyclo[10.7.1.0^2,^7.0^8,^20.0^13,^18]icosa-2(7),3,5,8(20),9,11,13(18),14,16-nonaen-19-one]

Structure (SMILES): COc1ccc2cc3c(N)nn(C(=O)c4cccc(N(C)C)c4)c3nc2c1 [MW05, (3-Amino-7-methoxypyrazolo[3,4-b]quinolin-1-yl)-[3-(dimethylamino)phenyl]methanone]
inhibition at 1 µM [1, 11]: 10%
inhibition at 10 µM [1, 12]: -8%
inhibition at 1 µM [2, 11]: 0%
inhibition at 10 µM [2, 12]: -2%
inhibition at 1 µM [3, 11]: 0%
inhibition at 10 µM [3, 12]: -1%
inhibition at 1 µM [4, 11]: 5%
inhibition at 10 µM [4, 12]: -6%
inhibition at 1 µM [5, 11]: 2%
inhibition at 10 µM [5, 12]: 6%
inhibition at 1 µM [6, 11]: 31%
inhibition at 10 µM [6, 12]: 81%
inhibition at 1 µM [7, 11]: 20%
inhibition at 10 µM [7, 12]: 9%
inhibition at 1 µM [8, 11]: 16%
inhibition at 10 µM [8, 12]: 63%
inhibition at 1 µM [9, 11]: -10%
inhibition at 10 µM [9, 12]: -9%
inhibition at 1 µM [10, 11]: -6%
inhibition at 10 µM [10, 12]: 5%

inhibition at 10 µM [1, 13]: 8%
inhibition at 10 µM [2, 14]: 24%
inhibition at 10 µM [3, 15]: 10%
inhibition at 10 µM [4, 16]: 20%
inhibition at 10 µM [5, 17]: 17%
inhibition at 10 µM [6, 18]: 5%
inhibition at 10 µM [7, 19]: 29%
inhibition at 10 µM [8, 20]: 8%
inhibition at 10 µM [9, 21]: -6%
inhibition at 10 µM [10, 22]: -9%
Structure (SMILES): COc1ccc2nc3c(cc2c1)c(N)nn3C(=O)c1cccc(N(C)C)c1 [MW05-E2, 1-[3-(dimethylamino)benzoyl]-6-methoxy-1H-pyrazolo[3,4-b]quinolin-3-amine]
